Series [1] is described as follows: Dissolution of FeCl3 with ligand in aqueous phase at neutral or basic pH; Fe in filtrate by ICP-OES. The class given is physicochemical. As to the method:
(§1) The invention is illustrated without implied limitation by the following examples, in which the amounts of metals in solution were measured by ICP-OES (Inductively Coupled Plasma-Optical Emission Spectroscopy).
(§2) In the examples which follow, the term “theoretical % by weight of metal in solution” is understood to mean the ratio, expressed as percentage, of the total weight of metal initially introduced into the reaction medium to the weight of the filtrate recovered and analysed.
(§3) 4.92 g (0.025 mol) of OHMNa are dissolved in 19.17 ml of water. 20.27 g of an aqueous solution comprising 6.76 g of FeCl3 hexahydrate (0.025 mol) are added over 15 min while maintaining the temperature of the reaction medium at approximately 20° C. The pH of the solution is adjusted to 7 by addition of a 50% by weight aqueous sodium hydroxide solution (5.87 g). The mixture is subsequently stirred at ambient temperature for 24 h. After filtering and washing with water, 59.9 g of a solution with a dark brown-red colour are recovered.
8.11 g of FeCl3 hexahydrate are dissolved in 12 ml of water. The pH is adjusted to 7 by addition of a 50% by weight aqueous sodium hydroxide solution. After filtering and washing with water, less than 10 ppm of Fe are measured in the filtrate.
2.05 g (0.01 mol) of 5-chloro-2-hydroxymandelic acid are suspended in 15 ml of water. 0.8 g of 50% by weight sodium hydroxide solution (0.01 mol) is added in order to obtain a solution. 17.7 g of an aqueous solution comprising 2.7 g of FeCl3 hexahydrate (0.01 mol) are added over 15 min while maintaining the temperature of the reaction medium at approximately 20° C. The pH of the solution is adjusted to 7 by addition of 2.4 g of a 50% by weight aqueous sodium hydroxide solution. The mixture is subsequently stirred at ambient temperature for 24 h. After filtering, 35.1 g of a solution with a dark brown-red colour are recovered.
The procedure of Example 1 or 2 is repeated but using, according to the invention, the ligands B, C, D and E of formula (I), the structures of which are described in Table 1 below, and varying the ligand/metal molar ratios, if appropriate.
The procedure of Example 2 is repeated by using the compounds G, H, I and J as ligands, the structures of which are described in Table 4 below, and varying the ligand/metal molar ratios, if necessary.
The procedure described in Example 1 is repeated but adjusting the pH of the solution to 6, 7, 9, 10 and 12.
A solution composed of 40 g of water and of 12.97 g of FeCl3 hexahydrate (0.048 mol) is added over 15 min to 43.5 g of an aqueous solution comprising 10.2 g of OHM.2Na (0.048 mol) while maintaining the temperature of the reaction medium at approximately 20° C. The pH of the solution is adjusted to 7 by addition of a 50% by weight aqueous sodium hydroxide solution (5.1 g). The mixture is subsequently stirred at ambient temperature for 5 weeks without specific protection with regard to light. After filtering, 80 g of a solution with a dark brown-red colour are recovered.
1.98 g (0.01 mol) of OHMNa are dissolved in 8 ml of water.
12.7 g of an aqueous solution comprising 2.7 g of FeCl3 hexahydrate (0.01 mol) are added over 15 min while maintaining the temperature of the reaction medium at approximately 20° C. The pH of the solution is adjusted to 7 by addition of 2.3 g of a 50% by weight aqueous sodium hydroxide solution. A suspension of 1.0 g (0.01 mol) of CaCO3 in 15 g of water is subsequently added. A few drops of 37% HCl are added to adjust the pH to 7. The mixture is subsequently stirred at ambient temperature for 24 hours. After filtering, 35.0 g of a solution with a dark brown-red colour are recovered.

Series [2] is described as follows: Dissolution of Mg(II) cations with OHM.2Na at pH 12. The settings on record: 0.05 mol OHM.2Na. It is filed as physicochemical. How it is done:
To an aqueous solution (60 g) containing 0.05 mol of OHM.2Na, are added 9.9 g of an aqueous solution containing 0.025 mole of magnesium chloride (MgCl2). The pH is set at 12 with 1 g of an aqueous solution of HCl 1N. […] Without the OHM.2Na, the magnesium precipitate at pH 12 as a white solid (Mg(OH)2).
To an aqueous solution (60 g) containing 0.05 mol of OHM.2Na, are added 19.8 g of an aqueous solution containing 0.05 mole of magnesium chloride (MgCl2). The pH is set at 12 with 2.6 g of an aqueous solution of NaOH 30%. […] Without the OHM.2Na, the magnesium precipitate at pH 12 as a white solid (Mg(OH)2).

A short description of series [3]: Dissolution of Cr(III) cations with OHMNa; metal in filtrate by ICP-OES. The class given is physicochemical. How it is done:
as §1, §2, §3
(§4) The procedure of Example 1 is repeated but substituting FeCl3 by AlCl3, CrCl3.6H2O and Cu(OAc)2.H2O respectively.

Series [4] can be described thus: Dissolution of Al(III) cations with OHMNa; metal in filtrate by ICP-OES. It is filed as physicochemical. How it is done:
as §1, §2, §3, §4

A short description of series [5]: Dissolution of Cu(II) cations with OHMNa; metal in filtrate by ICP-OES. The class given is physicochemical. How it is done: as §1, §2, §3, §4
For series [6] the following is noted: commercial chelates, background statement; cited from earlier work.
A short description of series [7]: Iron content of the dried powder by ICP-OES. The class given is physicochemical. Particulars: ICP-OES measurement on powder. As to the method: as §1
The dark brown-red solution obtained in Example 1 is concentrated by distillation of water. The residue is dried in an oven at 50° C. for 48 h. A red-brown powder is obtained which comprises 12% by weight of iron by ICP-OES measurement.
A measurement on a powder formed of [Fe(o,o-EDDHA)Na] chelate available commercially gives only 7.8% by weight of iron.

The conditions of series [8]: background statement, on average; cited from earlier work.
Setting [9] is: pH 7, stirred 24 h at ambient temperature, filtrate.
Setting [10] is: pH 7, total Fe introduced / weight of filtrate.
The mark [11] stands for this setting: Table 6, comparative ligands, pH 7.
Where [12] appears, read: Table 6, pH 7, ligand/iron molar ratio of 2/1.

Bounds are passed on as bounds.

With `O=C(O)C(O)c1cc(Cl)ccc1O` (stereo not shown) [5-chloro-2-hydroxymandelic acid], in series [1] (setting [9]), the “% by weight of Fe in solution measured” value was found to be 1.3 % by weight. Also, the “Theoretical % by weight of Fe in solution” value in series [1] (setting [10]) was found to be 1.59 % by weight.
As to `O=C([O-])C(O)c1ccc(O)cc1.[Na+]` (stereo not shown) [Example 3], in series [1] (Table 3, ligands B-E, pH 7), the “% by weight measured (Fe in solution)” value stood at 1.1 % by weight and the “Theoretical % by weight of Fe in solution” value was found to be 1.47 % by weight.
The corresponding values for `CCOc1cc(C(O)C(=O)O)ccc1O` (stereo not shown) [Example 4] are 1.5 % by weight and 1.83 % by weight.
The corresponding values for `O=C(O)C(O)c1ccc(O)c(O)c1` (stereo not shown) [Example 5] are 1.2 % by weight and 1.49 % by weight.
The matching figures for `O=C(O)C(O)c1cc(F)ccc1O` (stereo not shown) [Example 6]: 1.4 % by weight and 1.46 % by weight.
For the compound `O=C([O-])C(O)c1ccccc1[O-].[Na+].[Na+]` (stereo not shown) [OHM.2Na, disodium salt of 2-(2-hydroxyphenyl)-2-hydroxyacetic acid], the “Theoretical % by weight of Fe in solution” value in series [1] (pH 7, 5 weeks stirring) came out at 3.35 % by weight. For the same compound, the “% by weight of Fe in solution measured” value in series [1] (pH 7, stirred 5 weeks at ambient temperature without protection from light) came to 3.2 % by weight. Further, the “state of the solution after 24 hours under stirring” value is on record as “still homogeneous, without any solid” in series [2] (0.025 mole MgCl2) and “still homogeneous, without any solid” in series [2] (0.05 mole MgCl2).
On to `O=C([O-])C(O)c1ccccc1O.[Na+]` (stereo not shown) [OHMNa, sodium salt of 2-(2-hydroxyphenyl)-2-hydroxyacetic acid], for which the “% by weight measured (Fe in solution)” value in series [1] (OHMNa, pH 6) is on record as 1.7 % by weight; in series [1] (OHMNa, pH 7), 2.3 % by weight; in series [1] (OHMNa, pH 9), 1.9 % by weight; in series [1] (OHMNa, pH 10), 2.7 % by weight; in series [1] (OHMNa, pH 12), 1.9 % by weight. Further, the “Theoretical % by weight of Fe in solution” value in series [1] (OHMNa, pH 6) is recorded as 2.18 % by weight; in series [1] (OHMNa, pH 7), 2.33 % by weight; in series [1] (OHMNa, pH 9) it was 1.96 % by weight; in series [1] (OHMNa, pH 10) it was 2.80 % by weight; in series [1] (OHMNa, pH 12), 1.92 % by weight; in series [1] (pH 7, in the presence of CaCO3), 1.59 % by weight. Besides, the “Theoretical % by weight of Fe in solution” value in series [1] (setting [10]) turned out to be 2.33 % by weight. Besides, the “% by weight of Fe in solution measured” value in series [1] (pH 7, in the presence of CaCO3 (0.01 mol), 24 hours) worked out at 1.4 % by weight; in series [1] (setting [9]), 2.3 % by weight. The “Theoretical % by weight of metal in solution” value in series [3] (pH 7) was found to be 1.83 % by weight; in series [4] (pH 7) it was 1 % by weight; in series [5] (pH 7), 1.43 % by weight. Moreover, the “% by weight measured (metal in solution)” value in series [3] (pH 7, 24 h) worked out at 1.40 % by weight; in series [4] (pH 7, 24 h), 1 % by weight; in series [5] (pH 7, 24 h), 1.40 % by weight.
As for `O=C(O)C(NCCNC(C(=O)O)c1ccccc1O)c1ccccc1[O-].[Fe].[Na+]` (stereo not shown) [[Fe(o,o-EDDHA)Na]], the solubility in water in series [6] was 150-300 g/l of water. Moreover, the “% by weight of iron in the powder” value in series [7] was 7.8 % by weight. Also, the “level of iron of commercial chelates” value in series [8] is recorded as ~6 % by weight.
In the case of `O.O.O.O.O.O.[Cl-].[Cl-].[Cl-].[Fe+3]` [compound 1, FeCl3 hexahydrate, reference compound], in series [1] (FeCl3 hexahydrate without ligand, pH 7), the “Fe measured in the filtrate” value was “less than 10 ppm”.
Consider `O=C(O)Cc1ccccc1O` [compound 2, reference compound], for which the “% by weight measured (Fe in solution)” value is <0.0025 % by weight in series [1] (setting [11]) and 0.01 % by weight in series [1] (setting [12]). In addition, the “Theoretical % by weight of Fe in solution” value in series [1] (setting [11]) amounted to 2.88 % by weight; in series [1] (setting [12]), 1.67 % by weight. Moreover, the “dissolution of iron in aqueous solution at pH 7 (in words)” value in series [1] (pH 7) is “do not make possible or make possible only to a very slight extent the dissolution of iron”.
Take `O=C(O)C(=O)c1ccccc1O` [compound 3, reference compound]: in series [1] (setting [11]), the “% by weight measured (Fe in solution)” value is recorded as 0.5 % by weight and the “Theoretical % by weight of Fe in solution” value was 4.09 % by weight. Besides, the “dissolution of iron in aqueous solution at pH 7 (in words)” value in series [1] (pH 7) is on record as “do not make possible or make possible only to a very slight extent the dissolution of iron”.
The matching figures for `O=C(O)C(O)c1ccccc1` (stereo not shown) [compound 4, reference compound]: 0.09 % by weight, 2.38 % by weight and “do not make possible or make possible only to a very slight extent the dissolution of iron”.
The matching figures for `O=C(O)C(O)c1ccccc1Cl` (stereo not shown) [compound 5, reference compound]: 0.01 % by weight, 4.73 % by weight and “do not make possible or make possible only to a very slight extent the dissolution of iron”.

These data come from patent publication US8372176B2, “Metal complexes comprising a ligand derived from 2-aryl-2-hydroxyacetic acid and a divalent or trivalent metal cation, and their use” (Clariant Specialty Fine Chemicals (France), priority 2006, dated 2013).
